The text below walks through data of article PMC6271219, “Antiprotozoal Activity of Achillea ptarmica (Asteraceae) and Its Main Alkamide Constituents” (Molecules, 2014).

Structures are written as SMILES. Converted amounts (≈) assume the structure as drawn. Like-named read-outs stand apart in the source and are kept apart here.

In assay [1] the test system is rat skeletal myoblasts (L6 cell line). The assay is described as follows: Cytotoxicity against rat skeletal myoblasts (L6 cell line). It is filed as cell-based. The method, then: (§1) The assays and the IC50 determinations were performed essentially as described previously.
Assay [2] concerns Leishmania donovani. Briefly: In vitro antiprotozoal assay against Leishmania donovani (Ldo). It is filed as cell-based. The procedure:
(§2) All fractions were analyzed by UHPLC/+ESI QTOF MSMS and representative samples chosen for re-evaluation of their antiprotozoal activity. At this stage, each of the chosen fractions was tested for percent growth inhibitory activity at two concentrations (see Table 2).
as §1

For assay [3], the system named is T. cruzi. The assay is described as follows: In vitro antiprotozoal assay against T. cruzi (Tcr). Type of assay: cell-based. The conditions noted are these: Trypanosoma cruzi. The method, then: as §2, §1
In assay [4] the test system is Plasmodium falciparum NF54 strain. Briefly: In vitro antiplasmodial assay, P. falciparum NF54 strain. It is filed as cell-based. The conditions noted are these: for IC50: Plasmodium falciparum; for SI Pf: ratio of cytotoxic (L6) over antiprotozoal IC50, Pf NF54 strain. The method, then:
as §2, §1

Assay [5] deals with Trypanosoma brucei rhodesiense. The assay is described as follows: In vitro antiprotozoal assay against T. brucei rhodesiense (Tbr). Type of assay: cell-based. The conditions noted are these: for SI Tbr: ratio of cytotoxic (L6) over antiprotozoal IC50. The procedure: as §2, §1
The test system of assay [6] is Plasmodium falciparum K1 strain. The assay is described as follows: In vitro antiplasmodial assay, P. falciparum K1 strain. It is filed as cell-based. The conditions noted are these: K1, read-out: IC50 Pf (value in brackets). The method, then:
Tests for antiprotozoal activities were carried out using established standard protocols at the Swiss Tropical and Public Health Institute (Swiss TPH, Basel, Switzerland). The assays and the IC50 determinations were performed essentially as described previously.

Assay [7] relates to K1 strain of Pf. More on the design: method as in PMID 2236290. The conditions noted are these: cited from earlier work.
In assay [8] the test system is K1 strain of Pf. More on the design: method as in PMID 15234750. The conditions noted are these: cited from earlier work.
Setting [9] is: cytotoxicity, L6 cell line, means of two independent determinations ± deviation from mean, read-out: IC50 Tox. L6.
Where [10] appears, read: cytotoxicity, L6 cell line, pure compounds, read-out: IC50 Tox. L6 (value in brackets) (converted).
The mark [11] stands for this setting: in vitro, means of two independent determinations ± deviation from mean, read-out: IC50 Ldo.
Where [12] appears, read: in vitro, pure compounds, read-out: IC50 Ldo (value in brackets) (converted).
Where [13] appears, read: in vitro, means of two independent determinations ± deviation from mean, read-out: IC50 Tcr.
Where [14] appears, read: in vitro, pure compounds, read-out: IC50 Tcr (value in brackets) (converted).
The mark [15] stands for this setting: NF54, NF54 strain, pure compounds, read-out: IC50 Pf (value in brackets) (converted).
[16] abbreviates: Trypanosoma brucei, RHODESIENSE, in vitro, means of two independent determinations ± deviation from mean, read-out: IC50 Tbr.
The mark [17] stands for this setting: Trypanosoma brucei, RHODESIENSE, in vitro, pure compounds, read-out: IC50 Tbr (value in brackets) (converted).
Where [18] appears, read: compared with A. ptarmica crude extract.
[19] abbreviates: L6, read-out: IC50 Tox. L6 (value in brackets).
[20] abbreviates: NF54, read-out: IC50 Pf (value in brackets).

Broadly, the IC50 is the midpoint of a concentration-inhibition curve. On to `C/C=C\CC/C=C/C=C/C(=O)NCC(C)C` [8,9-Z-Dehydropellitorine (2), (E,E,Z)-2,4,8-decatrienoic acid isobutylamide], for which the IC50 in assay [1] (setting [9]) is 16.5 ± 0.2 µg/mL; in assay [1] (setting [10]), 74.7 µM; in assay [2] (setting [11]), 5.01 ± 0.12 µg/mL; in assay [2] (setting [12]), 22.7 µM; in assay [3] (setting [13]), 14.2 ± 2.5 µg/mL; in assay [3] (setting [14]), 64.3 µM. The half-maximal inhibitory concentration (IC50) in assay [4] (setting [15]) is 29.3 µM; in assay [5] (setting [16]) it was 2 ± 0.06 µg/mL; in assay [5] (setting [17]), 9 µM; in assay [5] (in vitro, pure compounds, read-out: IC50 Tbr (value in brackets) (converted)), 9.1 µM. Moreover, the “SI Pf” value in assay [4] was 2.55. Besides, the “Anti-Tbr activity, fold lower in comparison with the crude extract” value in assay [5] (setting [18]) was determined as 3 fold. In addition, the “Selectivity index (Tbr), fold lower than that of the total extract” value in assay [5] (compared with A. ptarmica total extract) was “about 5 fold”. Further, the “SI Tbr” value in assay [5] worked out at 8.25.
With `CCCC#CC#CCC/C=C/C=C/C(=O)NCC(C)C` [Anacycline (6), (E,E)-2,4-tetradecadien-8,10-diynoic acid isobutylamide], the 50% inhibitory concentration (IC50) in assay [1] (L6, read-out: IC50 Tox. L6) was 48.7 ± 1.1 µg/mL; in assay [1] (setting [19]), 18 µM; in assay [2] (read-out: IC50 Ldo), greater than 100 µg/mL; in assay [2] (read-out: IC50 Ldo (value in brackets)), greater than 369 µM; in assay [3] (read-out: IC50 Tcr), 42 ± 4.5 µg/mL; in assay [3] (read-out: IC50 Tcr (value in brackets)) it was 155 µM. Besides, the concentration for half-maximal inhibition (IC50) in assay [4] (NF54, read-out: IC50 Pf) is 7.23 ± 0.4 µg/mL; in assay [4] (setting [20]), 26.7 µM; in assay [5] (setting [16]), 5.12 ± 0.95 µg/mL; in assay [5] (setting [17]) it was 18.9 µM. In addition, the “SI Pf” value in assay [4] is 6.74. Also, in assay [5], the “SI Tbr” value is 9.5.
As to `O=C(Cn1ccnc1[N+](=O)[O-])NCc1ccccc1` [Benznidazole, reference compound], the half-inhibitory concentration (IC50) is 0.439 ± 0.094 µg/mL in assay [3] (setting [13]) and 1.69 µM in assay [3] (setting [14]).
For `CCN(CC)CCCC(C)Nc1ccnc2cc(Cl)ccc12` (centres unmarked) [Chloroquine, reference compound], the IC50 in assay [4] (setting [20]) was 0.009 µM; in assay [6], 0.25 µM.
On to `Nc1nc(N)nc(Nc2ccc([As]3SCC(CO)S3)cc2)n1` (centres unmarked) [Melarsoprol, reference compound], for which the 50% inhibitory concentration (IC50) in assay [5] (Trypanosoma brucei, RHODESIENSE, read-out: IC50 Tbr) is 0.003 ± 0.001 µg/mL; in assay [5] (Trypanosoma brucei, RHODESIENSE, read-out: IC50 Tbr (value in brackets)) it was 0.008 µM.
For the compound `CCCCCC=CC=CC(=O)NCC(C)C` [N-isobutyldeca-2,4-diene], the “IC50 against Pf” value in assay [7] is reported as 5.4 µg/mL (≈ 24.2 µM).
In the case of `CCCCC/C=C/C=C/C(=O)NCC(C)C` [Pellitorine (1), (E,E)-2,4-decadienoic acid isobutylamide], the IC50 is 45.5 ± 9.1 µg/mL in assay [1] (setting [9]); 202 µM in assay [1] (setting [10]); 5.96 ± 0.16 µg/mL in assay [2] (setting [11]); 26.7 µM in assay [2] (setting [12]); 8.45 ± 1.08 µg/mL in assay [3] (setting [13]); 37.9 µM in assay [3] (setting [14]). For the same compound, the half-maximal inhibitory concentration (IC50) in assay [4] (NF54, NF54 strain, means of two independent determinations ± deviation from mean, read-out: IC50 Pf) is 3.26 µg/mL; in assay [4] (setting [15]), 14.6 µM; in assay [5] (setting [16]), 5.35 ± 0.54 µg/mL; in assay [5] (setting [17]), 24 µM. Besides, the “Concentration up to which reported inactive against Pf” value in assay [8] is greater than 20 µg/mL. The “IC50 Pf” value in assay [4] (NF54 strain, means of two independent determinations ± deviation from mean) is on record as 3.3 µg/mL (≈ 14.8 µM). The “Antiplasmodial activity, fold higher than that of the crude extract” value in assay [4] (setting [18]) is reported as “about 2 fold”. Moreover, in assay [4], the “SI Pf” value was 13.85. Also, in assay [5], the “SI Tbr” value is 8.41.
As for `COc1cc([C@@H]2c3cc4c(cc3[C@H](O)[C@H]3COC(=O)[C@H]23)OCO4)cc(OC)c1OC` [Podophyllotoxin, reference compound], the IC50 was 0.008 ± 0.001 µg/mL in assay [1] (L6, read-out: IC50 Tox. L6) and 0.019 µM in assay [1] (setting [19]).
